Measured values taken from patent US20080234318A1, “Chemical Compounds” (priority 2005, published 2008).

Test system: HIV-1
Assay: HOS HIV-1 infectivity assay
Type: cell-based
Details: Human immunodeficiency virus 1, BAL / IIIB, HOS cells expressing hCXCR4/hCCR5/hCD4/pHIV-LTR-luciferase, virus strain (Ba-L or IIIB) not given, read-out: Activity Level
Protocol: Compounds were profiled against two HIV-1 viruses, the M-tropic (CCR5 utilizing) Ba-L strain and the T-tropic (CXCR4 utilizing) IIIB strain. Both viruses were propagated in human peripheral blood lymphocytes. Compounds were tested for there ability to block infection of the HOS cell line (expressing hCXCR4/hCCR5/hCD4/pHIV-LTR-luciferase) by either HIV-1 Ba-L or HIV-1 IIIB. Compound cytotoxicity was also examined in the absence of virus addition.
HOS cells (expressing hCXCR4/hCCR5/hCD4/pHIV-LTR-luciferase) were harvested and diluted in Dulbeccos modified Eagles media supplemented with 2% FCS and non-essential amino acid to a concentration of 60,000 cells/ml. The cells were plated into 96-well plates (100 ul per well) and the plates were placed in a tissue culture incubator (37° C.; 5% CO2/95% air) for a period of 24h.
Subsequently, 50 ul of the desired drug solution (4 times the final concentration) was added to each well and the plates were returned to the tissue culture incubator (37° C.; 5% CO2/95% air) for 1h. Following this incubation 50 ul of diluted virus was added to each well (approximately 2 million RLU per well of virus). The plates were returned to the tissue culture incubator (37° C.; 5% CO2/95% air) and were incubated for a further 96h.
Following this incubation the endpoint for the virally infected cultures was quantified following addition of Steady-Glo Luciferase assay system reagent (Promega, Madison, Wis.). Cell viability or non-infected cultures was measured using a CellTiter-Glo luminescent cell viability assay system (Promega, Madison, Wis.). All luminescent readouts are performed on a Topcount luminescence detector (Packard, Meridien, Conn.).

| Compound | IC50 [µM] |
| --- | --- |
| CN(C)Cc1c(CN(C)[C@H]2CCCc3cccnc32)nc2cccc(N3CCN(C)CC3)n12 [Example 10, (8S)—N-{[3-[(Dimethylamino)methyl]-5-(4-methyl-1-piperazinyl)imidazo[1,2-a]pyridin-2-yl]methyl}-N-methyl-5,6,7,8-tetrahydro-8-quinolinamine] | < 0.1 |
| CCN(CC)Cc1c(CN(C)[C@H]2CCCc3cccnc32)nc2cccc(N3CCN(C)CC3)n12 [Example 11, (8S)—N-{[3-[(Diethylamino)methyl]-5-(4-methyl-1-piperazinyl)imidazo[1,2-a]pyridin-2-yl]methyl}-N-methyl-5,6,7,8-tetrahydro-8-quinolinamine] | < 0.1 |
| CN1CCN(c2cccc3nc(CN(C)[C@H]4CCCc5cccnc54)c(CN4CCCC4)n23)CC1 [Example 12, (8S)—N-Methyl-N-{[5-(4-methyl-1-piperazinyl)-3-(1-pyrrolidinylmethyl)imidazo[1,2-a]pyridin-2-yl]methyl}-5,6,7,8-tetrahydro-8-quinolinamine] | < 0.1 |
| CN1CCN(c2cccc3nc(CN(C)[C@H]4CCCc5cccnc54)c(CN(CCO)CCO)n23)CC1 [Example 13, 2,2′-({[5-(4-Methyl-1-piperazinyl)-2-({methyl[(8S)-5,6,7,8-tetrahydro-8-quinolinyl]amino}methyl)imidazo[1,2-a]pyridin-3-yl]methyl}imino)diethanol] | < 0.1 |
| CCN(CCO)Cc1c(CN(C)[C@H]2CCCc3cccnc32)nc2cccc(N3CCN(C)CC3)n12 [Example 14, 2-(Ethyl{[5-(4-methyl-1-piperazinyl)-2-({methyl[(8S)-5,6,7,8-tetrahydro-8-quinolinyl]amino}methyl)imidazo[1,2-a]pyridin-3-yl]methyl}amino)ethanol] | < 0.1 |
| CN1CCN(c2cccc3nc(CN(C)[C@H]4CCCc5cccnc54)c(CN4CCC(O)C4)n23)CC1 (stereo partly drawn) [Example 15, 1-{[5-(4-Methyl-1-piperazinyl)-2-({methyl[(8S)-5,6,7,8-tetrahydro-8-quinolinyl]amino}methyl)imidazo[1,2-a]pyridin-3-yl]methyl}-3-pyrrolidinol] | < 0.1 |
| CN1CCN(c2cccc3nc(CN(C)[C@H]4CCCc5cccnc54)c(CN4CCOCC4)n23)CC1 [Example 16, (8S)—N-Methyl-N-{[5-(4-methyl-1-piperazinyl)-3-(4-morpholinylmethyl)imidazo[1,2-a]pyridin-2-yl]methyl}-5,6,7,8-tetrahydro-8-quinolinamine] | < 0.1 |
| CNCc1c(CN(C)[C@H]2CCCc3cccnc32)nc2cccc(N3CCN(C)CC3)n12 [Example 19, (8S)—N-Methyl-N-{[3-[(methylamino)methyl]-5-(4-methyl-1-piperazinyl)imidazo[1,2-a]pyridin-2-yl]methyl}-5,6,7,8-tetrahydro-8-quinolinamine] | < 0.1 |
| CCNCc1c(CN(C)[C@H]2CCCc3cccnc32)nc2cccc(N3CCN(C)CC3)n12 [Example 20, (8S)—N-{[3-[(Ethylamino)methyl]-5-(4-methyl-1-piperazinyl)imidazo[1,2-a]pyridin-2-yl]methyl}-N-methyl-5,6,7,8-tetrahydro-8-quinolinamine] | < 0.1 |
| CN1CCN(Cc2c(CN(C)[C@H]3CCCc4cccnc43)nc3cccc(N4CCN(C)CC4)n23)CC1 [Example 21, (8S)—N-Methyl-N-({5-(4-methyl-1-piperazinyl)-3-[(4-methyl-1-piperazinyl)methyl]imidazo[1,2-a]pyridin-2-yl}methyl)-5,6,7,8-tetrahydro-8-quinolinamine] | < 0.1 |
| CN1CCN(c2cccc3nc(CN(C)[C@H]4CCCc5cccnc54)c(CN4CCCCC4)n23)CC1 [Example 22, (8S)—N-Methyl-N-{[5-(4-methyl-1-piperazinyl)-3-(1-piperidinylmethyl)imidazo[1,2-a]pyridin-2-yl]methyl}-5,6,7,8-tetrahydro-8-quinolinamine] | < 0.1 |
| CC(C)NCc1c(CN(C)[C@H]2CCCc3cccnc32)nc2cccc(N3CCN(C)CC3)n12 [Example 23, (8S)—N-Methyl-N-{[3-{[(1-methylethyl)amino]methyl}-5-(4-methyl-1-piperazinyl)imidazo[1,2-a]pyridin-2-yl]methyl}-5,6,7,8-tetrahydro-8-quinolinamine] | < 0.1 |
| CN1CCN(c2cccc3nc(CN(C)[C@H]4CCCc5cccnc54)c(CN)n23)CC1 [Example 24, (8S)—N-{[3-(Aminomethyl)-5-(4-methyl-1-piperazinyl)imidazo[1,2-a]pyridin-2-yl]methyl}-N-methyl-5,6,7,8-tetrahydro-8-quinolinamine] | < 0.1 |
| CC(=O)NCc1c(CN(C)[C@H]2CCCc3cccnc32)nc2cccc(N3CCN(C)CC3)n12 [Example 25, N-{[5-(4-Methyl-1-piperazinyl)-2-({methyl[(8S)-5,6,7,8-tetrahydro-8-quinolinyl]amino}methyl)imidazo[1,2-a]pyridin-3-yl]methyl}acetamide] | < 0.1 |
| CCC(=O)NCc1c(CN(C)[C@H]2CCCc3cccnc32)nc2cccc(N3CCN(C)CC3)n12 [Example 26, N-{[5-(4-Methyl-1-piperazinyl)-2-({methyl[(8S)-5,6,7,8-tetrahydro-8-quinolinyl]amino}methyl)imidazo[1,2-a]pyridin-3-yl]methyl}propanamide] | < 0.1 |
| CC(C)C(=O)NCc1c(CN(C)[C@H]2CCCc3cccnc32)nc2cccc(N3CCN(C)CC3)n12 [Example 27, 2-Methyl-N-{[5-(4-methyl-1-piperazinyl)-2-({methyl[(8S)-5,6,7,8-tetrahydro-8-quinolinyl]amino}methyl)imidazo[1,2-a]pyridine-3-yl]methyl}propanamide] | < 0.1 |
| CCC(C)C(=O)NCc1c(CN(C)[C@H]2CCCc3cccnc32)nc2cccc(N3CCN(C)CC3)n12 (stereo partly drawn) [Example 28, 2-Methyl-N-{[5-(4-methyl-1-piperazinyl)-2-({methyl[(8S)-5,6,7,8-tetrahydro-8-quinolinyl]amino}methyl)imidazo[1,2-a]pyridin-3-yl]methyl}butanamide] | < 0.1 |
| CN1CCN(c2cccc3nc(CN(C)[C@H]4CCCc5cccnc54)c(CNC(=O)c4ccccc4)n23)CC1 [Example 29, 2 N-{[5-(4-Methyl-1-piperazinyl)-2-({methyl[(8S)-5,6,7,8-tetrahydro-8-quinolinyl]amino}methyl)imidazo[1,2-a]pyridin-3-yl]methyl}benzamide] | < 0.1 |
| CN1CCN(c2cccc3nc(CN(C)[C@H]4CCCc5cccnc54)c(CNC(=O)Cc4ccccc4)n23)CC1 [Example 30, N-{[5-(4-Methyl-1-piperazinyl)-2-({methyl[(8S)-5,6,7,8-tetrahydro-8-quinolinyl]amino}methyl)imidazo[1,2-a]pyridin-3-yl]methyl}-2-phenylacetamide] | < 0.1 |
| COC(=O)NCc1c(CN(C)[C@H]2CCCc3cccnc32)nc2cccc(N3CCN(C)CC3)n12 [Example 31, Methyl {[5-(4-methyl-1-piperazinyl)-2-({methyl[(8S)-5,6,7,8-tetrahydro-8-quinolinyl]amino}methyl)imidazo[1,2-a]pyridin-3-yl]methyl}carbamate] | < 0.1 |
| CCOC(=O)NCc1c(CN(C)[C@H]2CCCc3cccnc32)nc2cccc(N3CCN(C)CC3)n12 [Example 32, Ethyl {[5-(4-methyl-1-piperazinyl)-2-({methyl[(8S)-5,6,7,8-tetrahydro-8-quinolinyl]amino}methyl)imidazo[1,2-a]pyridin-3-yl]methyl}carbamate] | < 0.1 |
